Laboratory results taken from PMC5507552 (Bioconjugate chemistry, 2017).

Tested on: human HEp2 cells
Conditions: read-out: Dark toxicity (IC50), overnight incubation, Cell Titer Blue, from dose-response curves

COc1ccc(C2=C3C=C(Cl)C(c4ccc(OC)cc4)=[N+]3[B-](F)(F)n3c2cc(Cl)c3-c2ccc(NC(=S)NCCOCCOCCOCCC(=O)N[C@@H](CC(C)C)C(=O)N[C@@H](C)C(=O)N[C@@H](CCCNC(=N)N)C(=O)N[C@@H](CC(C)C)C(=O)N[C@@H](CC(C)C)C(=O)N[C@H](C(N)=O)[C@@H](C)O)cc2)cc1 [Conjugate 8, BODIPY-3PEG-LARLLT-NH2]
IC50: 98 µM
